# Legend:
# [1] = system: MOG35-55-reactive T-cells (spleenocytes harvested at 26 DPI); test: Ex-vivo MOG35-55 re-stimulation of spleenocytes from EAE mice; format: in vivo, mouse; details: mice treated with single dose 1mg/kg
# Description: Fig 3 Administration of HTLV FP alleviates MOG35-55-induced EAE. (A-B) MOG35-55–antigen specific T-cells were activated by irradiated MOG35-55 presenting APCs, in the presence of HTLV FP or HTLV Scr at 10μM. (A) The proliferative responses were assessed by H^3-thymidine incorporation assay, and normalized to the proliferation of non-activated T-cells. The data is presented as mean inhibition of proliferation. n = 12. (B) IFN-γ was measured by ELISA assay. n = 12. (C-D) EAE was induced in C57BL/6 female mice that were treated with a single dose of HTLV FP, HTLV Scr or vehicle. […] (C) Direct clinical measurement of EAE phenotype in a 5-point scale with increased disease symptoms correlating with higher score value. The data is presented as mean EAE clinical score. (D) Mice were weighed the day before EAE induction, and the change (as a percentage) in weight was recorded. The data is presented as mean change from the initial weight. One-way ANOVA was used for statistical analysis. ^a HTLV FP ≠ Vehicle; ^b HTLV FP ≠ Vehicle & HTLV Scr; ^c HTLV FP ≠ HTLV Scr. ^a,b,cP<0.05. (E) Spleenocytes were harvested at 26 DPI and stimulated using MOG35-55. The proliferative responses were assessed by H^3-thymidine incorporation assay and normalized to the proliferation of non-activated T-cells. The data is presented as counts per minute (CPM). n = 7. (F-G) Spleenocytes were harvested at 26 DPI and stimulated using MOG35-55. Media was collected 48 hours following activation and secretion of IFN-γ and IL4 was measured by ELISA assay. […] One-way ANOVA was used for statistical analysis. *P<0.05;**P<0.01;***P<0.001; ns, not significant.
# We then performed an additional EAE experiment in which mice were treated with a single dose of HTLV FP (1mg/kg), HTLV Scr (1mg/kg) or vehicle. […] As disease manifestation was milder compared to the previous experiment, we were able to monitor animals for a longer period of time. […]
# [2] = system: MOG35-55–antigen specific T-cells; test: Cytokine secretion from activated antigen-specific T-cells (ELISA); format: cell-based, mouse (C57Bl/6J); details: peptide at 10μM, APC-activated T-cells, media 24 hours following activation, n = 12
# Description: Fig 2 Modulation of Th1/Th2 gene expression and cytokine secretion from activated T-cells by the HTLV FP. MOG35-55–antigen specific T-cells were activated by irradiated MOG35-55 presenting APCs, in the presence of the HTLV FP at 10μM. (A) Total RNA was isolated 24 hours following activation and mRNA expression levels were determined by qRT-PCR. The values of each gene were normalized to Rpl13a as a housekeeping control. The HTLV FP reduces mRNA expression of Th1 specific genes (IFNG, LTA, and STAT4) and elevates mRNA expression of Th2 specific genes (IL4 and IL10). The data is presented as arbitrary units. n≥3. (B) Media was collected 24 hours following activation and secretion of cytokines was measured by ELISA assay. IFN-γ secretion is inhibited, IL4 secretion is elevated and TNFα is not affected by the HTLV FP. n = 12. One-way ANOVA was used for statistical analysis. *P<0.05; **P<0.01;***P<0.001.
# Antigen-specific T-cells were plated onto round 96-well plates in medium containing RPMI-1640 supplemented with 2.5% fetal calf serum (FCS), 100 U/ml penicillin, 100 μg/ml streptomycin, 50μM β-mercaptoethanol, and 2mM L-glutamine. […] In addition, the relevant peptide was added. Each treatment was made with quadruplicate. Analysis of IFN-γ, IL-4 and TNFα secretion was performed by ELISA 24 hours after cell activation according to standard protocols from R&D systems.
# [3] = harvested at 26 DPI, media 48 hours following activation, ELISA, n>8, compared to vehicle and HTLV Scr groups
sequence,measurement,setting,value
"AVPVAVWLVSALAMGAGVAGGITGSMSLASGKS [HTLV FP, gp21 fusion peptide of HTLV-1, MT-2 isolate]",IFN-γ secretion of spleenocytes stimulated with MOG35-55,[1]; [3],significantly lower IFN-γ secretion
same,IL4 secretion of spleenocytes stimulated with MOG35-55,[1]; [3],significantly higher IL4 secretion
same,T-cell proliferative response of spleenocytes stimulated with MOG35-55,"[1]; spleens harvested at 26 DPI, H3-thymidine incorporation, CPM, n = 7",significantly lower in HTLV FP treated spleenocytes compared to HTLV Scr treated spleenocytes
same,IFN-γ secretion,[2],inhibited both T-cell proliferation and IFN-γ secretion with higher potency than the HTLV Scr
same,IL4 secretion,[2],elevated IL4 secretion
same,TNF-α secretion,[2],had no effect on TNF-α secretion
